Measurements taken from patent publication US9440946B2, “N-phenethylcarboxamide derivatives” (BAYER INTELLECTUAL PROPERTY GMBH, priority 2005, dated 2016).

How the values were obtained:
Alternaria brassicae = test: In vivo test on Alternaria brassicae (leaf spot of crucifers), preventive spray on radish plants; conditions: radish plants (Pernot variety), contaminated 24 hours after treatment, grading 6 to 7 days after contamination vs control plants, read-out: protection (good, at least 70%, or total); for pest or weed control at 500 ppm: dose of 500 ppm; for pest or weed control at 330 ppm: dose of 330 ppm
Experimental: (§1) The active ingredients tested are prepared by homogenization in a mixture of acetone/tween/DMSO, then diluted with water to obtain the desired active material concentration.
Radish plants (Pernot variety), sown on a 50/50 peat soil-pozzolana substrate in starter cups and grown at 18-20° C., are treated at the cotyledon stage by spraying with the active ingredient prepared as described above.
(§2) Plants, used as controls, are treated with the mixture of acetone/tween/DMSO/water not containing the active material.
After 24 hours, the plants are contaminated by spraying them with an aqueous suspension of Alternaria brassicae spores (40,000 spores per cm^3). The spores are collected from a 12 to 13 days-old culture.
The contaminated radish plants are incubated for 6-7 days at about 18° C., under a humid atmosphere.
Grading is carried out 6 to 7 days after the contamination, in comparison with the control plants.

Pyrenophora teres = test: In vivo test on Pyrenophora teres (barley net blotch), preventive spray on barley plants; conditions: 288 h, barley plants (Express variety), contaminated 24 hours after treatment, grading 12 days after contamination vs control plants, read-out: protection (good, at least 70%, or total); for pest or weed control at 330 ppm: dose of 330 ppm
Experimental: as §1
Barley plants (Express variety), sown on a 50/50 peat soil-pozzolana substrate in starter cups and grown at 12° C., are treated at the 1-leaf stage (10 cm tall) by spraying with the active ingredient prepared as described above. Plants, used as controls, are treated with the mixture of acetone/tween/DMSO/water not containing the active material.
After 24 hours, the plants are contaminated by spraying them with an aqueous suspension of Pyrenophora teres spores (12,000 spores per ml). The spores are collected from a 12-day-old culture. The contaminated barley plants are incubated for 24 hours at about 20° C. and at 100% relative humidity, and then for 12 days at 80% relative humidity.
Grading is carried out 12 days after the contamination, in comparison with the control plants.

Botrytis cinerea = test: In vivo test on Botrytis cinerea (cucumber grey mould), preventive spray on gherkin plants; conditions: gherkin plants (Vert petit de Paris variety), contaminated 24 hours after treatment, grading 5/7 days after contamination vs control plants, read-out: protection (good, at least 50%, or total); for pest or weed control at 330 ppm: dose of 330 ppm; for pest or weed control at 500 ppm: dose of 500 ppm
Experimental: The active ingredients tested are prepared by homogenization in a mixture of acetone/tween/DMSO, then diluted with water to obtain the desired active material
Gherkin plants (Vert petit de Paris variety), sown on a 50/50 peat soil-pozzolana substrate in starter cups and grown at 18-20° C., are treated at the cotyledon Z11 stage by spraying with the active ingredient prepared as described above.
as §2
After 24 hours, the plants are contaminated by depositing drops of an aqueous suspension of Botrytis cinerea spores (150,000 spores per ml) on upper surface of the leaves. The spores are collected from a 15-day-old culture and are suspended in a nutrient solution composed of: • 20 g/L of gelatin • 50 g/L of cane sugar • 2 g/L of NH4NO3 • 1 g/L of KH2PO4
The contaminated cucumber plants are settled for 5/7 days in a climatic room at 15-11° C. (day/night) and at 80% relative humidity.
Grading is carried out 5/7 days after the contamination, in comparison with the control plants. Under these conditions, good (at least 50%) or total protection is observed: • at a dose of 500 ppm with the following compounds: C-1, D-12, G-8 and I-1; and • at a dose of 330 ppm with the following compounds: G-2, G-5, G-6 and G11.

Compound: Cc1ccsc1C(=O)NCCc1ccc(Cl)cc1Cl [Compound A-2]
- pest or weed control at 500 ppm (Alternaria brassicae): ≥ 70%

Compound: COc1ccc(OC)c(CCNC(=O)c2cn(C)nc2C(F)F)c1 [Compound G-7]
- pest or weed control at 330 ppm (Alternaria brassicae): ≥ 70%

Compound: Cn1cc(C(=O)NCCc2c(Cl)cc(C(F)(F)F)cc2Cl)c(C(F)F)n1 [Compound G-11]
- pest or weed control at 330 ppm (Pyrenophora teres): ≥ 70%
- pest or weed control at 330 ppm (Botrytis cinerea): ≥ 50%

Compound: Cc1nc(C(F)F)c(C(=O)NCCc2ccc(Cl)cc2Cl)s1 [Compound D-12]
- pest or weed control at 500 ppm (Botrytis cinerea): ≥ 50%

Compound: Cc1ccccc1CCNC(=O)c1cn(C)nc1C(F)(F)F [Compound G-14]
- pest or weed control at 330 ppm (Alternaria brassicae): ≥ 70%

Compound: COc1ccc(Br)cc1CCNC(=O)c1cn(C)nc1C(F)F [Compound G-10]
- pest or weed control at 330 ppm (Alternaria brassicae): ≥ 70%

Compound: Cc1ccc(C)c(CCNC(=O)c2cccnc2Cl)c1 [Compound E-1]
- pest or weed control at 330 ppm (Alternaria brassicae): ≥ 70%

Compound: Cn1cc(C(=O)NCCc2ccccc2Cl)c(C(F)F)n1 [Compound G-2]
- pest or weed control at 330 ppm (Pyrenophora teres): ≥ 70%
- pest or weed control at 330 ppm (Botrytis cinerea): ≥ 50%
- pest or weed control at 330 ppm (Alternaria brassicae): ≥ 70%

Compound: Cc1ccc(C)c(CCNC(=O)c2cn(C)nc2C(F)(F)F)c1 [Compound G-17]
- pest or weed control at 330 ppm (Alternaria brassicae): ≥ 70%

Compound: Cc1ccc(CCNC(=O)c2sc(C)nc2C(F)(F)F)c(C)c1 [Compound D-2]
- pest or weed control at 330 ppm (Alternaria brassicae): ≥ 70%

Compound: Cc1nc(N)sc1C(=O)NCCc1ccc(Cl)cc1Cl [Compound D-8]
- pest or weed control at 500 ppm (Pyrenophora teres; dose of 500 ppm): ≥ 70%
- pest or weed control at 500 ppm (Alternaria brassicae): ≥ 70%

Compound: O=C(NCCc1ccc(Cl)cc1Cl)c1ccsc1I [Compound I-1]
- pest or weed control at 500 ppm (Botrytis cinerea): ≥ 50%
- pest or weed control at 500 ppm (Alternaria brassicae): ≥ 70%

Compound: Cn1cc(C(=O)NCCc2ccc(F)cc2F)c(C(F)(F)F)n1 [Compound G-20]
- pest or weed control at 330 ppm (Pyrenophora teres): ≥ 70%

Compound: Cc1nc(C(F)(F)F)c(C(=O)NCCc2c(Cl)cccc2Cl)s1 [Compound D-4]
- pest or weed control at 330 ppm (Alternaria brassicae): ≥ 70%

Compound: Cc1ccc(CCNC(=O)c2cn(C)nc2C(F)F)c(C)c1 [Compound G-5]
- pest or weed control at 330 ppm (Pyrenophora teres): ≥ 70%
- pest or weed control at 330 ppm (Botrytis cinerea): ≥ 50%
- pest or weed control at 330 ppm (Alternaria brassicae): ≥ 70%

Compound: Cc1occc1C(=O)NCCc1ccc(Cl)cc1Cl [Compound C-1]
- pest or weed control at 500 ppm (Botrytis cinerea): ≥ 50%

Compound: Cn1cc(C(=O)NCCc2ccc(F)cc2F)c(C(F)F)n1 [Compound G-8]
- pest or weed control at 330 ppm (Pyrenophora teres): ≥ 70%
- pest or weed control at 500 ppm (Botrytis cinerea): ≥ 50%
- pest or weed control at 330 ppm (Alternaria brassicae): ≥ 70%

Compound: Cn1cc(C(=O)NCCc2ccc(C(F)(F)F)cc2Cl)c(C(F)(F)F)n1 [Compound G-15]
- pest or weed control at 330 ppm (Pyrenophora teres): ≥ 70%
- pest or weed control at 330 ppm (Alternaria brassicae): ≥ 70%

Compound: Cc1ccccc1CCNC(=O)c1cccnc1Cl [Compound E-2]
- pest or weed control at 330 ppm (Alternaria brassicae): ≥ 70%

Compound: Cn1cc(C(=O)NCCc2c(Cl)cccc2Cl)c(C(F)F)n1 [Compound G-6]
- pest or weed control at 330 ppm (Pyrenophora teres): ≥ 70%
- pest or weed control at 330 ppm (Botrytis cinerea): ≥ 50%
- pest or weed control at 330 ppm (Alternaria brassicae): ≥ 70%

Compound: Cc1ccc(CCNC(=O)c2cccnc2Cl)c(C)c1 [Compound E-9]
- pest or weed control at 330 ppm (Alternaria brassicae): ≥ 70%

Compound: COc1cccc(CCNC(=O)c2cn(C)nc2C(F)F)c1OC [Compound G-3]
- pest or weed control at 330 ppm (Alternaria brassicae): ≥ 70%

Compound: COc1ccccc1CCNC(=O)c1cn(C)nc1C(F)F [Compound G-4]
- pest or weed control at 330 ppm (Pyrenophora teres): ≥ 70%
- pest or weed control at 330 ppm (Alternaria brassicae): ≥ 70%

Compound: Cc1ccccc1CCNC(=O)c1cn(C)nc1C(F)F [Compound G-12]
- pest or weed control at 330 ppm (Alternaria brassicae): ≥ 70%

Compound: Cc1nc(C(F)(F)F)c(C(=O)NCCc2ccccc2C)s1 [Compound D-6]
- pest or weed control at 330 ppm (Pyrenophora teres): ≥ 70%
